Laboratory results reported in paper PMC9586926, “An efflux-susceptible antibiotic-adjuvant with systemic efficacy against mouse infections” (Scientific Reports, 2022).
Converted amounts (≈) assume the structure as drawn. Like-named read-outs stand apart in the source and are kept apart here. Where a SMILES comes first, the peptide text is derived from it. [ ]: non-standard residue; d: D form. The star is where a group is joined. 12Ado = NCCCCCCCCCCCC(=O)O; Decanoyl = CCCCCCCCCC(=O)*; Orn = NCCC[C@H](N)C(=O)O

Key:
[1] = test system: RAW 264.7; experiment: Cytotoxicity, Alamar blue; assay type: cell-based, murine; settings: 24 h incubation, read-out: IC50 RAW 264.7 (50% inhibition of cells respiration)
Method: (§1) Cell lines used in this study included murine RAW 264.7 macrophages and human embryonic kidney HEK-293FT cells (ATCC, Biological Industries, Beit Haemek, Israel). Cells were grown in Dulbecco’s modified eagle medium (DMEM) containing […] glucose, L-glutamine, sodium bicarbonate and sodium pyruvate, supplemented with 10% fetal bovine serum and pen-strep, at 37 °C and 5% CO2.
(§2) Lipopeptides cytotoxicity was determined using fluorescent measurements of reduced resazurin. 2 × 10^4 cells were first cultured in 96-well plates over-night (final volume of 100 µl) at 37 °C and 5% CO2. Then, the medium was removed and cells were incubated for an additional 24 h with serial twofold dilutions of the lipopeptides in growth medium. Then, 10 µl of Alamar blue were added and plates were incubated for 3 h, after which fluorescence (excitation: 530 nm; emission: 590 nm) of the reduced resazurin was recorded (BioTek Instruments Synergy HT; Winooski, VT, USA).

[2] = test system: E. coli 25922; settings: same assessment tools; cited from earlier work
Text: To our knowledge, the finding of an adjuvant whose activity is enhanced—rather than repressed—after efflux, is hitherto unreported. One might ask, at this point: If the K-, O and B-based analogs are efflux substrates (as implied by MIC data, Table 2), how come only C10BBc12B is positively affected by efflux?

[3] = test system: E. coli; experiment: MIC, broth microdilution; assay type: cell-based, Escherichia coli; settings: broth microdilution in LB, 18–24 h, 37 °C; n = 4 strains; published data in bold (not discernible)
Text: (§3) Bacteria used in this study consisted of standard American Type Culture Collection (ATCC; Biological Industries, Beit Haemek, Israel) strains, clinically isolated (CI; Sourasky Medical Center, Tel Aviv, Israel) strains, as well as isogenic mutant strains. Gram-negative bacteria included Acinetobacter baumannii ATCC 19606; Escherichia coli ATCC 25922, 35218, CFT073, CI 14384, 16327, and the isogenic pair Ag100 (wild-type) and its efflux deficient mutant Ag100a (ΔacrAB); Klebsiella pneumoniae CI 1287, 224; Pseudomonas aeruginosa ATCC 27853, CI 1278, 8634; Salmonella enterica serovar Typhimurium ATCC 14028 (wild-type) and its isogenic efflux deficient mutant ΔacrAB. Bacteria were grown in Luria–Bertani broth (LB; 5 g/l NaCl, 5 g/l yeast extract, 10 g/l tryptone; pH = 7.0) at 37 °C with shaking. Over-night cultures were diluted 10-folds into fresh growth-medium and incubated at 37 °C with shaking until reaching mid-logarithmic phase. Then, bacterial concentrations were adjusted using O.D.600 nm measurements, and bacteria were subjected to the experimental procedures listed herein.
(§4) MIC was determined according to the broth microdilution method: antimicrobials were subjected to serial twofold dilutions in LB medium, and incubated with 5 × 10^5 CFU/ml of bacteria (final volume of 200 µl) for 18–24 h at 37 °C. Then, O.D.620 nm was measured (BioTek Instruments Synergy HT; Winooski, VT, USA), and the MIC was defined as the lowest antimicrobial concentration for which no increase in O.D.620 nm was evident, compared to the untreated control.

[4] = test system: A. baumannii; experiment: MIC, broth microdilution; assay type: cell-based, Acinetobacter baumannii; settings: broth microdilution in LB, 18–24 h, 37 °C; n = 1 strain
Text: as §3, §4

[5] = test system: S. Typhimurium 14028ΔAcrAB; settings: cited from earlier work
Text: Table 2 Effect of RND pumps on growth-inhibitory activity. | column: MIC^a (µM) in LB / S. Typhimurium / Mutant

[6] = test system: S. Typhimurium 14028 (wild-type); settings: cited from earlier work
Text: Table 2 Effect of RND pumps on growth-inhibitory activity. | column: MIC^a (µM) in LB / S. Typhimurium / Wild-Type

[7] = test system: murine RBC; experiment: Hemolysis; assay type: cell-based; settings: 1% hematocrit murine RBC, 3 h, 37 °C
Method: Permeabilization of red blood cells (RBC) was evaluated using absorbance measurements of extracellular hemoglobin. Serial twofold dilutions of lipopeptides were incubated with 1% hematocrit of murine RBC for 3 h at 37 °C with shaking. Samples were then centrifuged at 20,000 RCF for 5 min, and absorbance of the supernatants was measured at 450 nm (BioTek Instruments Synergy HT; Winooski, VT, USA). Percent hemolysis was then calculated by (AS − AN)/(AP − AN) × 100; where AS, AN, and AP represent the absorbance of the sample, negative control (PBS) and positive control (Milli-Q water), respectively. LC50 values were extracted from trend-lines generated for linear-regions of plots correlating lipopeptide concentrations and percent hemolysis.

[8] = test system: E. coli Ag100a (ΔacrAB); settings: cited from earlier work
Text: Table 2 Effect of RND pumps on growth-inhibitory activity. | column: MIC^a (µM) in LB / E. coli / Mutant

[9] = test system: K. pneumoniae; experiment: MIC, broth microdilution; assay type: cell-based, Klebsiella pneumoniae; settings: broth microdilution in LB, 18–24 h, 37 °C; n = 2 strains
Text: as §3, §4

[10] = test system: HEK-293FT; experiment: Cytotoxicity, Alamar blue; assay type: cell-based, human; settings: 24 h incubation, read-out: IC50 HEK-293FT (50% inhibition of cells respiration)
Method: as §1, §2

[11] = parameters: method as in PMID 28329302; settings: 40 mg/kg dose; cited from earlier work
[12] = test system: E. coli Ag100 (wild-type); settings: cited from earlier work
Text: Table 2 Effect of RND pumps on growth-inhibitory activity. | column: MIC^a (µM) in LB / E. coli / Wild-Type

[13] = test system: P. aeruginosa; experiment: MIC, broth microdilution; assay type: cell-based, Pseudomonas aeruginosa; settings: broth microdilution in LB, 18–24 h, 37 °C; n = 3 strains
Text: as §3, §4

[14] = test system: E. coli 25922; settings: ref 23 (C14(ɷ5)OOc10O), ref 41 (PMBN); cited from earlier work
Text: Towards better understanding the synergistic mechanism, we compared individual growth kinetics to determine contributions of each antimicrobial and assessed the type and extent of implicated membrane damages, assuming that low OM-permeability underlies the observed antibiotics inefficiencies by impeding their intracellular accumulation.

[15] = test system: E. coli Ag100a (ΔacrAB); experiment: MIC, broth microdilution, efflux deficient mutant; assay type: cell-based, Escherichia coli; settings: Ag100a
Text: as §3
(§5) MIC was determined according to the broth microdilution method: antimicrobials were subjected to serial twofold dilutions in LB medium, and incubated with 5 × 10^5 CFU/ml of bacteria (final volume of 200 µl) for 18–24 h at 37 °C. […]

[16] = test system: E. coli 25922; experiment: Outer membrane permeabilization, NPN fluorescence; assay type: cell-based, Escherichia coli
Method: Lipopeptides ability to permeabilize the OM was evaluated using fluorescent measurements of N-phenyl-1-naphthylamine (NPN)[67]. 200 µl of an over-night culture were diluted into 10 ml of fresh LB medium and incubated at 37 °C with shaking until reaching O.D.600 nm = 0.5. The culture was then centrifuged at 10,000 RCF for 3 min, the supernatant aspirated, and the pellet resuspended in equal volume of 5 mM HEPES containing 5 mM glucose (pH = 7.2). This suspension was then mixed with NPN (5 mM in acetone) to reach a final NPN concentration of 10 µM. Then, 190 µl of this mixture were dispensed into black microtiter plates, mixed with 10 µl of HEPES containing serial twofold dilutions of lipopeptides and fluorescence (excitation: 360 nm; emission: 460 nm) was recorded immediately for up to 10 min at 37 °C with shaking[29] (BioTek Instruments Synergy HT; Winooski, VT, USA). In a modified version of this assay, in which efflux was inhibited, bacteria (similarly prepared) were incubated with the lipopeptides in presence or absence of 100 µM CCCP for 5 min. Samples were then twice centrifuged at 10,000 RCF for 3 min, the supernatant aspirated, and the pellet resuspended in equal volume of 5 mM HEPES containing 20 mM glucose (pH = 7.2), so as to re-energize the efflux machinery. NPN was then added (final concentration of 10 µM) and fluorescence was recorded immediately thereafter.

[17] = test system: E. coli Ag100 (wild-type); experiment: MIC, broth microdilution, wild-type strain; assay type: cell-based, Escherichia coli
Text: as §3, §5

[18] = test system: E. coli 25922; experiment: Cytoplasmic membrane depolarization, DiSC3(5) fluorescence; assay type: cell-based, Escherichia coli; settings: C10BBc12B up to 10 µM; PMB 2.5 µM
Method: Lipopeptides aptitude to depolarize the CM was evaluated using fluorescent measurements of the transmembrane potential sensitive dye 3,3′-Dipropylthiadicarbocyanine iodide (DiSC3(5))[69]. Bacteria (O.D.600 nm = 0.1) were washed by centrifugation at 10,000 RCF for 5 min, supernatant aspiration, and pellet resuspension in 5 mM HEPES containing 20 mM glucose, 50 mM KCl and 0.2 mM EDTA (pH = 7.2). This suspension was mixed with DiSC3(5) (400 µM in DMSO) to reach a final DiSC3(5) concentration of 4 µM and was incubated in the dark for 1 h at 37 °C with shaking. Then, 180 µl of this mixture were dispensed into black microtiter plates and fluorescence was recorded (excitation: 622 nm; emission: 670 nm) at 37 °C with shaking until baseline stabilization (BioTek Instruments Synergy HT; Winooski, VT, USA). Finally, 20 µl of HEPES containing serial twofold dilutions of lipopeptides were added and fluorescence was recorded for up to 30 min at the same conditions.

[19] = test system: S. Typhimurium 14028 (wild-type); experiment: MIC, broth microdilution, wild-type strain; assay type: cell-based, Salmonella enterica serovar Typhimurium
Text: as §3, §5

[20] = test system: S. Typhimurium 14028ΔAcrAB; experiment: MIC, broth microdilution, efflux deficient mutant; assay type: cell-based, Salmonella enterica serovar Typhimurium
Text: as §3, §5

Compound: CCCCCCCCCC(=O)N[C@@H](CCCN)C(=O)N[C@@H](CCCN)C(=O)NCCCCCCCCCCCC(=O)N[C@@H](CCCN)C(N)=O [C10OOc12O] (Decanoyl-[Orn][Orn][12Ado][Orn]-NH2)
- IC50 [1]: > 50 µM
- CM depolarization [2]: interact with the CM to the point of inducing its depolarization
- MIC E. coli (n=4) [3]: ≥ 50 µM
- MIC A. baumannii (n=1) [4]: > 50 µM
- MIC (µM) in LB, S. Typhimurium Mutant [5]: 6.2 µM (≈ 4.41 µg/mL)
- MIC (µM) in LB, S. Typhimurium Wild-Type [6]: > 50 µM
- LC50 Erythrocytes (50% hemolysis) [7]: > 50 µM
- MIC (µM) in LB, E. coli Mutant [8]: 6.2 µM (≈ 4.41 µg/mL)
- MIC K. pneumoniae (n=2) [9]: > 50 µM
- IC50 [10]: > 50 µM
- mortality [11]: mortality of another mouse was recorded within an hour
- MIC (µM) in LB, E. coli Wild-Type [12]: > 50 µM
- MIC P. aeruginosa (n=3) [13]: > 50 µM

Compound: polymyxin B nonapeptide [PMBN]
- effect of sub-inhibitory concentrations on bacterial growth in absence of antibiotics [14]: transiently inhibited bacterial growth

Compound: Polymyxin B [reference compound]
- MIC (µM) in LB, E. coli Mutant [15]: 0.7 µM
- reduction of NPN fluorescence by 10 mM MgCl2 [16]: much less
- MIC (µM) in LB, E. coli Wild-Type [17]: 0.7 µM
- CM depolarization (trans-membrane potential) [18]: rapid CM-depolarization
- MIC (µM) in LB, S. Typhimurium Wild-Type [19]: 0.7 µM
- MIC (µM) in LB, S. Typhimurium Mutant [20]: 0.7 µM
